Measurements as given in paper PMC5432998, “Recombinant expression of thermostable processive MtEG5 endoglucanase and its synergism with MtLPMO from Myceliophthora thermophila during the hydrolysis of lignocellulosic substrates” (Biotechnology for Biofuels, 2017).

Biological target: T1, MtEG5A (Thermothelomyces thermophilus, UniProt G2Q5D8)
T1 construct: gene MYCTH_86753; mature GH5 with CBM1; ORF 389 aa, signal peptide removed (printed MKSSILASVFATGAVA); C-terminal myc/His tag; Pichia pastoris X33
T1 sequence (G2Q5D8 17-389): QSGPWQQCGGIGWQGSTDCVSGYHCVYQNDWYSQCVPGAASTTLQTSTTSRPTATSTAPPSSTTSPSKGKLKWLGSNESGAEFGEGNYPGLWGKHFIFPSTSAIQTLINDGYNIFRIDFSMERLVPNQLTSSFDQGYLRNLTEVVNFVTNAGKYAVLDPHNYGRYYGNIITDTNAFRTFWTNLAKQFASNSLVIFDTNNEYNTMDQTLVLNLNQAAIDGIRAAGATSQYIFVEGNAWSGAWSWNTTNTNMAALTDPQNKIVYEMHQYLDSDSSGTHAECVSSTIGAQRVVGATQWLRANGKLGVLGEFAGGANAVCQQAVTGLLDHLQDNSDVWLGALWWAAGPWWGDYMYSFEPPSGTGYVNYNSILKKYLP
Test: HPAEC-PAD hydrolysis time course
Format: biochemical
Details: 40 uM substrate; citrate-phosphate pH 5.0; 50 °C

Question: Which “HPAEC-PAD hydrolysis time course” value does the source give for OC[C@H]1O[C@@H](O[C@H]2[C@H](O)[C@@H](O)[C@H](O[C@H]3[C@H](O)[C@@H](O)[C@H](O[C@H]4[C@H](O)[C@@H](O)[C@H](O[C@H]5[C@H](O)[C@@H](O)C(O)O[C@@H]5CO)O[C@@H]4CO)O[C@@H]3CO)O[C@@H]2CO)[C@H](O)[C@@H](O)[C@@H]1O (some centres unmarked) [G5, cellopentaose] here?
Answer: the enzyme catalyzed the hydrolysis of G5, the products were G2 and G3

Question: With OC[C@H]1O[C@@H](O[C@H]2[C@H](O)[C@@H](O)[C@H](O[C@H]3[C@H](O)[C@@H](O)[C@H](O[C@H]4[C@H](O)[C@@H](O)[C@H](O[C@H]5[C@H](O)[C@@H](O)[C@H](O[C@H]6[C@H](O)[C@@H](O)C(O)O[C@@H]6CO)O[C@@H]5CO)O[C@@H]4CO)O[C@@H]3CO)O[C@@H]2CO)[C@H](O)[C@@H](O)[C@@H]1O (some centres unmarked) [G6, cellohexaose] as the compound, how does the “HPAEC-PAD hydrolysis time course” value read?
Answer: The comparison of catalytic efficiency (k cat /K m) values of MtEG5A against the oligosaccharides
